In data set [1] the target is T1, mitochondrial F1F0-ATPase (Bos taurus, UniProt P13621).
T1 construct: from tissue
Nature of the data set: ATPase activity in sub-mitochondrial particles (SMPs). It is filed as biochemical, bovine. To be noted: 80 μM. The source says: Oligomycin, a macrolide natural product that binds to the mitochondrial F1F0-ATPase, induces a state 3 to 4 transition and generates O2^− like Bz-423. Based on these similarities, it is possible that the F1F0-ATPase is also the molecular target for Bz-423. To test this hypothesis, the effect of Bz-423 on ATPase activity in sub-mitochondrial particles (SMPs) was examined.
>40 derivatives of Bz-423 were developed to determine the elements on this novel agent required for biological activity. […] The potency of these analogues in cell based assays correlated with the ED50 values in ATPase inhibition experiments using SMPs.

The target of a further data set is T2, human OSCP (Homo sapiens, UniProt P48047).
T2 construct: made in house; host or cells: E. coli
Nature of the data set: Quenching of intrinsic OSCP fluorescence on titration (binding isotherm). Particulars: Bz-Cl, binds less tightly. An excerpt: Oligomycin is a macrolide natural product that binds to the mitochondrial F1F0-ATPase, induces a state 3 to 4 transition, and as a result, generates ROS (e.g., O2^−). In preferred embodiments, the present invention binds the OSCP component of the mitochondrial F1F0-ATPase. In certain embodiments, screening assays of the present invention permit detection of binding partners of the OSCP. OSCP is an intrinsically fluorescent protein. In certain embodiments, titrating a solution of test compounds of the present invention into an E. Coli sample overexpressed with OSCP results in quenching of the intrinsic OSCP fluorescence. In other embodiments, fluorescent or radioactive test compounds can be used in direct binding assays. In other embodiments, competition binding experiments can be conducted. In this type of assay, test compounds are assessed for their ability to compete with Bz-423 for binding to the OSCP. In some embodiments, the compounds of the present invention cause a reduced increase in cellular ROS levels and reduced apoptosis in cells through regulation of the OSCP gene (e.g., altering expression of the OSCP gene). In further embodiments, the present invention functions by altering the molecular motions of the ATPase motor.
To determine if Bz-423 indeed binds to the OSCP and the affinity of the interaction, human OSCP was overexpressed in E. coli. […]

The subject of another data set is cells. It is filed as cell-based.
The test system of data set [2] is panel of cells in Table 2. The data set can be described thus: Antiproliferation against the panel of cells, 3 d. It is filed as cell-based. Particulars: after 3 d.
In data set [3] the test system is ornithine decarboxylase (ODC). Nature of the data set: ODC activity in treated cells, conversion of 3H-ornithine to putrescine. It is filed as cell-based. Particulars: cells treated 4 h. How it is done: In these experiments, the conversion of ornithine to putrescine was quantified using ^3H-ornithine. For comparisons, control cells were treated with vehicle control or difluoromethyl ornithine (DFMO), a potent inhibitor of ornithine decarboxylase (like Bz-423, DFMO is a potent anti-proliferative agent). […] The reduction in ODC activity was paralleled by a decrease in ODC protein levels measured under the same conditions.
As described above, Bz-423 induced apoptosis was signaled by an ROS response that arose from MRC complex III as a result of the state 3 to 4 transition. It was next sought to determine if the ROS response, critical for apoptosis, also mediated these effects on ODC. If the ROS was required for the decrease in ODC activity, it would likewise be implicated as potentially part of the anti-proliferative response to Bz-423. To test this, Ramos cells were treated with Bz-423, DFMO, or vehicle control for 4 h. In parallel, a second group of cells was pre-incubated with MnTBAP to limit the ROS and then cultured with Bz-423, DFMO, and vehicle control.

Data set [4] has as its system Ramos B cells. Nature of the data set: cells. It is filed as cell-based, human. How it is done:
Cell viability is assessed by staining with propidium iodide (PI, 1 μg/mL). PI fluorescence is measured using a FACScalibur flow cytometer (Becton Dickinson, San Diego, Calif.). Measurement of hypodiploid DNA is conducted after incubating cells in DNA-labeling solution (50 μg/mL of PI in PBS containing 0.2% Triton and 10 μg/mL RNAse A) overnight at 4 degrees C. The data is analyzed using the CellQuest software excluding aggregates.

Data set [5] deals with Ramos B cells. It is filed as cell-based, human. Particulars: micromolar FK506.
For data set [6], the system named is isolated rat liver mitochondria. The data set can be described thus: ROS production in isolated mitochondria (DCFH oxidation to DCF). It is filed as biochemical. How it is done:
Male Long Evans rats are starved overnight and sacrificed by decapitation. Liver samples are homogenized in ice cold buffer A (250 mM sucrose, 10 mM Tris, 0.1 mM EGTA, pH 7.4), and nuclei and cellular debris are pelleted (10 min, 830 g, 4° C.). Mitochondria are collected by centrifugation (10 min, 15,000 g, 4° C.), and the supernatant is collected as the S15 fraction. The mitochondrial pellet is washed three times with buffer B (250 mM sucrose, 10 mM Tris, pH 7.4), and re-suspended in buffer B at 20–30 mg/mL. Mitochondria are diluted (0.5 mg/mL) in buffer C (200 mM sucrose, 10 mM Tris, pH 7.4, 1 mM KH2PO4, 10 μM EGTA, 2.5 μM rotenone, 5 mM succinate) containing 2′,7′-dichlorodihydrofluorescin diacetate (DCFH-DA, 1 μM). For state 3 measurements, ADP (2 mM) is included in the buffer, and prior to the addition of Bz-423, mitochondria are allowed to charge for 2 min. To induce state 4, oligomycin (10 μM) is added to buffer C. […] To detect effects on O2^− and delta ψm, mitochondria are incubated for 15 min at 37° C. in buffer C with vehicle, Bz-423, or CCCP containing DHE (5 μM) or DIOC6(3) (20 nM), and aliquots are removed for analysis by fluorescence microscopy.
O2^− production by Bz-423 may result from binding to a protein within mitochondria or a target in another compartment that signals mitochondria to generate ROS. To distinguish between these alternatives, isolated rat liver mitochondria were assayed for ROS production by monitoring the oxidation of 2′,7′-dichlorodihydrofluorescin diacetate to of 2′,7′-dichlorofluorescin in the presence and absence of Bz-423. In this assay, the rate of DCF production increased after a lag period during which endogenous reducing equivalents were consumed and the acetate moieties on the probe were hydrolyzed to yield 2′,7′-dichlorodihydrofluorescin, the redox-active species.

The mark [7] stands for this setting: Ramos B cells, 24 h, propidium iodide exclusion, flow cytometry, error ±5%, read-out: EC50 (μM), cell death.

Where two headings read alike, the source gives them in different places.

T2 sequence (P48047 24-213): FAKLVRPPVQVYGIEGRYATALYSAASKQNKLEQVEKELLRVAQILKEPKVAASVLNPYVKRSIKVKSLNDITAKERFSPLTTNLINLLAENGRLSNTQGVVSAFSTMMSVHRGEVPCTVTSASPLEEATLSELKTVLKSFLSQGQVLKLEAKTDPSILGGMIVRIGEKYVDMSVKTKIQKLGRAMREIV

As to `CN1C(=O)CN=C(c2ccc(Cl)cc2)c2cc(Cl)ccc21` [4-Cl-diazepam, 4-chlorodiazepam], in data set [1], the “Inhibition of mitochondrial ATPase activity” value was “do not significantly inhibit”.

As for `CN1C(=O)C(Cc2ccc3ccccc3c2)N=C(c2ccc(Cl)cc2)c2cc(Cl)ccc21` (centres unmarked) [Bz-Cl], the Kd – broadly, a measure of binding affinity in units of concentration – on human OSCP was about 5 µM. In the data set with cells, the “Decrease of cytotoxic activity compared to Bz-423” value was about 80%. In addition, the “Reduction of proliferation compared with Bz-423” value in data set [2] is “comparable ED50 values”. For the same compound, in data set [3], the “Effect on ODC activity” value is listed as “inhibited ODC activity”.

With `CN1C(=O)CN=C(c2ccc(O)cc2)c2cc(Cl)ccc21` [Compound 1], the EC50 – broadly, the midpoint of the concentration-response curve – in the data set with Ramos B cells [4] (setting [7]) was over 80 µM.

With `CN1C(=O)C(Cc2ccc3ccccc3c2)N=C(c2ccccc2)c2cc(Cl)ccc21` (centres unmarked) [Compound 2], the EC50 in the data set on Ramos B cells [4] (setting [7]) was over 80 µM.

On to `Cc1cc(C2=NC(Cc3ccc4ccccc4c3)C(=O)N(C)c3ccc(Cl)cc32)ccc1O` (centres unmarked) [Compound 16], for which, in the data set on Ramos B cells [5], the “Inhibition of compound-induced cell death by FK506” value is given as “≈ 60%”. Moreover, the “Cytotoxic potency compared with Bz-423” value with Ramos B cells [4] is on record as “does not alter the activity”. For the same compound, the EC50 with Ramos B cells [4] (assessed as described in Table 1, read-out: EC50, cell death) is 3 µM.

Regarding `CCC(C)N(C)C(=O)c1cc2ccccc2c(-c2ccccc2Cl)n1` (centres unmarked) [PK11195, reference compound], the “Inhibition of mitochondrial ATPase activity” value in data set [1] was “do not significantly inhibit”. In addition, the EC50 with Ramos B cells [4] (Homo sapiens, Ramos B cells, 24 h, propidium iodide exclusion, flow cytometry, error ±5%, read-out: EC50 (μM), cell death) is over 80 µM.

antimycin A [reference compound]: the “Increase in rate of ROS production versus control” value in data set [6] (state 3 respiration, aerobic, after induction phase, slopes compared to control) is listed as “nearly two-fold”. Also, in data set [6] (state 4 respiration), the “ROS production in state 4 mitochondria” value was “is active”.

The values are drawn from patent US7144880B2, “Compositions relating to novel compounds and targets thereof” (Regents of the University of Michigan, priority 2003, dated 2006).
